Experimental data: patent publication US11999746B2, “Compounds” (GlaxoSmithKline Intellectual Property Development Limited, priority 2014, dated 2024)
Counter-ions that a name gives are not always drawn.

How the values were obtained:
[1] = target: T1, recombinant human Lp-PLA2 (Homo sapiens, UniProt Q13093); assay: (1b) hrThioPAF assay, recombinant human Lp-PLA2; type: biochemical; conditions: Examples 266-412 were tested here, one experiment or average of multiple experiments, read-out: rhLp-PLA2 (pIC50) (converted)
T1 sequence (Q13093 22-441): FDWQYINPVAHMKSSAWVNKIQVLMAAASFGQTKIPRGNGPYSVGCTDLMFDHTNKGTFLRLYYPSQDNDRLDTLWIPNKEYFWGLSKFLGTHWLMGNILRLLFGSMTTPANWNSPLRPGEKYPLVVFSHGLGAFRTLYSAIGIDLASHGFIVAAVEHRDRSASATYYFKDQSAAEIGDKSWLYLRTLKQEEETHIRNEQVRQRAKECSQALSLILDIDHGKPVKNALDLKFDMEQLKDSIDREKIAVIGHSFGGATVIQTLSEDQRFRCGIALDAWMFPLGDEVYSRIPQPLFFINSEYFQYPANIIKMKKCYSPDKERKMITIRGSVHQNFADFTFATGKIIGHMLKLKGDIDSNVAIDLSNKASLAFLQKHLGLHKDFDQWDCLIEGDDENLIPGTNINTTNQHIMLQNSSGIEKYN
How it was run: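 Fluorogenic assay: 20 pM rhLp-PLA2 in 50 mM HEPES pH 7.4, 150 mM NaCl, 1 mM CHAPS with 1:3 serially diluted compounds; substrate mix of 40 μM 2-thio-PAF, 40 μM CPM, 400 μM NEM (pre-addition levels). 20 min at 25 °C in the dark; fluorescence ex 380/em 485 nm, pIC50 by curve fitting.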

[2] = target: T2, Lp-PLA2 in human plasma (Homo sapiens, UniProt Q13093); assay: (3b) Lp-PLA2 human plasma alternative Thio-PAF assay; type: biochemical; conditions: (3b) alternative Thio-PAF assay, pooled human plasma; Examples of 266-412 were tested here; read-out: pIC50 in the Lp-PLA2 human plasma assay (converted)
T2 construct: from tissue; host or cells: pooled human plasma
T2 sequence (Q13093 22-441): T1 sequence (Q13093 22-441)
Method: (3b) Alternative Thio-PAF Assay
The human plasma assay utilizes the same thioester analog of PAF as described in (1b) “hr ThioPAF” assay. This assay may detect the activity of Lp-PLA2 in human plasma, as determined by specific inhibition by Lp-PLA2 inhibitors.
The thio-PAF assay was run as a quenched 20 μL assay. Compounds source plate was prepared by making 1:3 (by volume) serial dilution of the compounds into pure DMSO on 96-well microplate. 5 μL of compounds on compound source plate were transferred to 96-well Corning 3686 (black) low-volume plates by STAR+(Hamilton) liquid dispenser. 10 μL pooled human plasma, which was previously aliquoted and frozen, was added. Plates were centrifuged for 30 sec at 1000 rpm. After 15 minutes preincubation at room temperature, 5 μL of substrate solution comprising 2 mM 2-thio-PAF [from ethanol stock], 52 μM CPM [from a DMSO stock] and 2.5 mM NEM (N-ethylmaleimide) [made fresh daily in DMSO] in assay buffer (50 mM HEPES, pH 7.4, 150 mM NaCl, 1 mM CHAPS) was added to 96-well Corning 3686 (black) low-volume plates. After 3 mins, reaction was quenched with 10 μL of 5% aqueous trifluoroacetic acid (TFA). Plates were centrifuged 30 sec at 1000 rpm, covered to protect from light and incubated for 10 min at room temperature. Plates were read at ex: 380 nm/em: 485 nm using Envision plate reader (Perkin Elmer). Raw data were transferred to Excel software and pIC50 data, curve and QC analysis was conducted by using XL fit module in Excel.

Row | SMILES | IC50 [1] | IC50 [2]
1 | O=c1nc(OCc2cc(F)c(Oc3ccnc(C(F)(F)F)c3)c(F)c2)cc2n1CC1CNCCN21 (stereo not shown) [Example E270, 7-((3,5-Difluoro-4-((2-(trifluoromethyl)pyridin-4-yl)oxy)benzyl)oxy)-3,4,11,11a-tetrahydro-1H-pyrazino[1′,2′:3,4] imidazo [1,2-c]pyrimidin-9(2H)-one] | ≤ 10000 nM | ≤ 100 nM
2 | N#Cc1cccc(COc2cc3n(c(=O)n2)CC2CNCCN32)c1 (stereo not shown) [Example E272, 3-(((9-Oxo-2,3,4,9,11,11a-hexahydro-1H-pyrazino[1′,2′:3,4]imidazo [1,2-c]pyrimidin-7-yl)oxy)methyl) benzonitrile] | ≤ 10000 nM | ≤ 100 nM
3 | O=c1nc(OCc2cc(F)c(Oc3cncc(C(F)(F)F)c3)c(F)c2)cc2n1CC1CNCCN21 (stereo not shown) [Example E273, 7-((3,5-Difluoro-4-((5-(trifluoromethyl)pyridin-3-yl)oxy)benzyl)oxy)-3,4,11,11a-tetrahydro-1H-pyrazino[1′,2′:3,4] imidazo [1,2-c]pyrimidin-9(2H)-one] | ≤ 1 nM | ≤ 100 nM
4 | O=c1nc(OCc2ccc(F)c(F)c2)cc2n1CC1CNCCN21 (stereo not shown) [Example E274, 7-((3,4-Difluorobenzyl)oxy)-3,4,11,11a-tetrahydro-1H-pyrazino[1′,2′:3,4] imidazo [1,2-c]pyrimidin-9(2H)-one] | ≤ 100 nM | ≤ 100 nM
5 | Cc1ccc(Oc2c(F)cc(COc3cc4n(c(=O)n3)CC3CNCCN43)cc2F)cn1 (stereo not shown) [Example E279, 7-((3,5-Difluoro-4-((6-methylpyridin-3-yl)oxy)benzyl)oxy)-3,4,11,11a-tetrahydro-1H-pyrazino[1′,2′:3,4] imidazo [1,2-c]pyrimidin-9(2H)-one] | ≤ 10000 nM | ≤ 100 nM
6 | CCN1CCN2c3cc(OCc4ccc(F)c(C#N)c4)nc(=O)n3CC2C1 (stereo not shown) [Example E280, 5-(((2-Ethyl-9-oxo-2,3,4,9,11,11a-hexahydro-1H-pyrazino[1′,2′:3,4]imidazo[1,2-c]pyrimidin-7-yl)oxy)methyl)-2-fluorobenzonitrile] | ≤ 10000 nM | ≤ 100 nM
7 | CC(=O)N1CCN2c3cc(OCc4ccc(F)c(C#N)c4)nc(=O)n3CC2C1 (stereo not shown) [Example E281, 5-(((2-Acetyl-9-oxo-2,3,4,9,11,11a-hexahydro-1H-pyrazino[1′,2′:3,4]imidazo[1,2-c]pyrimidin-7-yl)oxy)methyl)-2-fluorobenzonitrile, trifluoroacetic Acid Salt] | ≤ 10000 nM | ≤ 100 nM
8 | CCS(=O)(=O)N1CCN2c3cc(OCc4ccc(F)c(C#N)c4)nc(=O)n3CC2C1 (stereo not shown) [Example E283, 5-(((2-(Ethylsulfonyl)-9-oxo-2,3,4,9,11,11a-hexahydro-1H-pyrazino[1,2′:3,4]imidazo[1,2-c]pyrimidin-7-yl)oxy)methyl)-2-fluorobenzonitrile] | ≤ 10000 nM | ≤ 100 nM
9 | CN(C)CC(=O)N1CCN2c3cc(OCc4ccc(F)c(C#N)c4)nc(=O)n3CC2C1 (stereo not shown) [Example E284, 5-(((2-(2-(Dimethylamino)acetyl)-9-oxo-2,3,4,9,11,11a-hexahydro-1H-pyrazino[1,2′:3,4]imidazo[1,2-c]pyrimidin-7-yl)oxy)methyl)-2-fluorobenzonitrile] | ≤ 10000 nM | ≤ 100 nM
10 | [2H]C1([2H])C2CN(C(C)=O)CCN2c2cc(OCc3ccc(F)c(C#N)c3)nc(=O)n21 (stereo not shown) [Example E285, 5-(((2-Acetyl-11,11-dideutero-9-oxo-2,3,4,9,11,11a-hexahydro-1H-pyrazino[1′,2′:3,4]imidazo[1,2-c]pyrimidin-7-yl)oxy)methyl)-2-fluorobenzonitrile] | ≤ 10000 nM | ≤ 100 nM
11 | CS(=O)(=O)N1CCN2c3cc(OCc4ccc(F)c(C#N)c4)nc(=O)n3CC2C1 (stereo not shown) [Example E286, 2-Fluoro-5-(((2-(methylsulfonyl)-9-oxo-2,3,4,9,11,11a-hexahydro-1H-pyrazino[1′,2′:3,4]imidazo[1,2-c]pyrimidin-7-yl)oxy)methyl)benzonitrile hydrochloride] | ≤ 10000 nM | ≤ 100 nM
12 | [2H]C1([2H])C2CN(S(C)(=O)=O)CCN2c2cc(OCc3ccc(F)c(C#N)c3)nc(=O)n21 (stereo not shown) [Example E287, 5-(((11,11-Dideutero-2-(methylsulfonyl)-9-oxo-2,3,4,9,11,11a-hexahydro-1H-pyrazino[1′,2′:3,4]imidazo[1,2-c]pyrimidin-7-yl)oxy)methyl)-2-fluorobenzonitrile] | ≤ 10000 nM | ≤ 100 nM
13 | N#Cc1cc(COc2cc3n(c(=O)n2)CC2CN(C(=O)CCN)CCN32)ccc1F (stereo not shown) [Example E288, 5-(((2-(3-Aminopropanoyl)-9-oxo-2,3,4,9,11,11a-hexahydro-1H-pyrazino[1′,2′:3,4]imidazo[1,2-c]pyrimidin-7-yl)oxy)methyl)-2-fluorobenzonitrile] | ≤ 10000 nM | ≤ 100 nM
14 | CCC(=O)N1CCN2c3cc(OCc4ccc(F)c(C#N)c4)nc(=O)n3CC2C1 (stereo not shown) [Example E289, 2-Fluoro-5-(((9-oxo-2-propionyl-2,3,4,9,11,11a-hexahydro-1H-pyrazino[1′,2′:3,4]imidazo[1,2-c]pyrimidin-7-yl)oxy)methyl)benzonitrile 2,2,2-trifluoroacetate] | ≤ 10000 nM | ≤ 100 nM
15 | CC(C)C(=O)N1CCN2c3cc(OCc4ccc(F)c(C#N)c4)nc(=O)n3CC2C1 (stereo not shown) [Example E290, 2-Fluoro-5-(((2-isobutyryl-9-oxo-2,3,4,9,11,11a-hexahydro-1H-pyrazino[1′,2′:3,4]imidazo[1,2-c]pyrimidin-7-yl)oxy)methyl)benzonitrile 2,2,2-trifluoroacetate] | ≤ 10000 nM | ≤ 100 nM
16 | CCCC(=O)N1CCN2c3cc(OCc4ccc(F)c(C#N)c4)nc(=O)n3CC2C1 (stereo not shown) [Example E291, 5-(((2-Butyryl-9-oxo-2,3,4,9,11,11a-hexahydro-1H-pyrazino[1′,2′:3,4]imidazo[1,2-c]pyrimidin-7-yl)oxy)methyl)-2-fluorobenzonitrile 2,2,2-trifluoroacetate] | ≤ 10000 nM | ≤ 100 nM
17 | N#Cc1cc(COc2cc3n(c(=O)n2)CC2CN(C(=O)C4CC4)CCN32)ccc1F (stereo not shown) [Example E292, 5-(((2-(cyclopropanecarbonyl)-9-oxo-2,3,4,9,11,11a-hexahydro-1H-pyrazino[1′,2′:3,4]imidazo[1,2-c]pyrimidin-7-yl)oxy)methyl)-2-fluorobenzonitrile 2,2,2-trifluoroacetate] | ≤ 10000 nM | ≤ 100 nM
18 | CC(C)CC(=O)N1CCN2c3cc(OCc4ccc(F)c(C#N)c4)nc(=O)n3CC2C1 (stereo not shown) [Example E293, 2-Fluoro-5-(((2-(3-methylbutanoyl)-9-oxo-2,3,4,9,11,11a-hexahydro-1H pyrazino[1′,2′:3,4]imidazo[1,2-c]pyrimidin-7-yl)oxy)methyl)benzonitrile] | ≤ 10000 nM | ≤ 100 nM
19 | CC(C)(C)C(=O)N1CCN2c3cc(OCc4ccc(F)c(C#N)c4)nc(=O)n3CC2C1 (stereo not shown) [Example E294, 2-Fluoro-5-(((9-oxo-2-pivaloyl-2,3,4,9,11,11a-hexahydro-1H-pyrazino[1′,2′:3,4]imidazo[1,2-c]pyrimidin-7-yl)oxy)methyl)benzonitrile 2,2,2-trifluoroacetate] | ≤ 10000 nM | ≤ 100 nM
20 | CC(C)S(=O)(=O)N1CCN2c3cc(OCc4ccc(F)c(C#N)c4)nc(=O)n3CC2C1 (stereo not shown) [Example E295, 2-Fluoro-5-(((2-(isopropylsulfonyl)-9-oxo-2,3,4,9,11,11a-hexahydro-1H-pyrazino[1′,2′:3,4]imidazo[1,2-c]pyrimidin-7-yl)oxy)methyl)benzonitrile 2,2,2-trifluoroacetate] | ≤ 10000 nM | ≤ 100 nM
